From ChEMBL document CHEMBL3132753, “Synthesis and biological evaluation of 2-acetamidothiophene-3-carboxamide derivatives against Leishmania donovani” (Medchemcomm, 2014) come the findings set out here.

Molecules are shown by their SMILES.

The nature of series [1]: Cytotoxicity against human THP1 cells. It is filed as cell-based. The note with it: THP-1 cells.
Series [2] has as its system Leishmania donovani. The series can be described thus: Antileishmanial activity against amastigote stage of Leishmania donovani MHOM/ET/67/HU3 infected in human THP1 cells assessed as parasite clearance after 3 days by Draq5 staining-based confocal microscopic analysis. It is filed as functional, organism-based. The conditions noted are these: MHOM/ET/67/HU3, THP-1, 72 h.

In series [3] the test system is Leishmania donovani. In words: Antileishmanial activity against promastigote stage of Leishmania donovani MHOM/ET/67/HU3 assessed as parasite viability after 48 hrs by resazurin dye-based assay. It is filed as functional, organism-based. The conditions noted are these: MHOM/ET/67/HU3, 48 h. Background: Alamar Blue is a resazurin reagent that responds to reducing activity.

Series [4] is described as follows: Selectivity index, ratio of CC50 for human THP1 cells to EC50 for amastigote stage of Leishmania donovani MHOM/ET/67/HU3. It is filed as toxicity, cell-based. The conditions noted are these: THP-1 cells, read-out: Ratio CC50/EC50.

The term CC50 denotes the concentration that lowers cell viability or growth by half. High values mean better tolerance by the cells, low ones harm at low concentration. The term EC50 denotes the concentration that produces a half-maximal response. On to `CC(C)(C)NC(=O)c1c(NC(=O)C(F)(F)F)sc2c1CCCCC2`, for which the half-maximal cytotoxic concentration (CC50) in series [1] is > 50 µM. For the same compound, the EC50 in the series with Leishmania donovani [2] was > 50 µM.

`CCCCCCCCCCCCCCCCOP(=O)([O-])OCC[N+](C)(C)C` [MILTEFOSINE]: the values for the 50% effective concentration (EC50) in the series with Leishmania donovani [3] and in the series with Leishmania donovani [2] were 7.4 µM and 7.1 µM, respectively. The compound further had a CC50 in series [1] of 22.7 µM. Further, in series [4], the selectivity ratio is 3.19.

Consider `O=C(Nc1ccc(Cl)cc1)c1c(NC(=O)C(F)(F)F)sc2c1CCCCC2`, for which the 50% cytotoxic concentration (CC50) in series [1] was > 50 µM. Further, the EC50 in the series with Leishmania donovani [2] was > 50 µM.

With `COc1ccc(NC(=O)c2c(NC(=O)C(F)(F)F)sc3c2CCCCC3)cc1`, the concentration giving a half-maximal response (EC50) was > 50 µM with Leishmania donovani [3] and 6.41 µM in the series on Leishmania donovani [2]. Also, the CC50 in series [1] was > 50 µM. Moreover, the selectivity ratio in series [4] was > 7.8.

Take `COc1ccccc1NC(=O)c1c(NC(=O)C(F)(F)F)sc2c1CCCCC2`: the concentration for a half-maximal effect (EC50) is 42 µM in the series on Leishmania donovani [3] and > 50 µM in the series on Leishmania donovani [2]. Further, the 50% cytotoxic concentration (CC50) in series [1] is > 50 µM.

As for `COc1ccc(NC(=O)c2c(NC(=O)C(F)(F)F)sc3c2CCC3)cc1`, the cytotoxic concentration (CC50) in series [1] was > 50 µM. For the same compound, the EC50 with Leishmania donovani [2] was > 50 µM.

Regarding `COc1ccc(NC(=O)c2c(NC(=O)C(F)(F)F)sc3c2CCCC3)cc1`, the half-maximal effective concentration (EC50) in the series with Leishmania donovani [3] was > 50 µM; in the series with Leishmania donovani [2] it was 14.6 µM. Besides, in series [1], the 50% cytotoxic concentration (CC50) is > 50 µM. For the same compound, the selectivity ratio in series [4] was > 3.42.

Take `COc1ccc(NC(=O)c2c(NC(=O)c3ccccc3)sc3c2CCCCC3)cc1`: the half-maximal cytotoxic concentration (CC50) in series [1] is > 50 µM. In addition, the EC50 with Leishmania donovani [2] is > 50 µM.

For `CC(C)(C)OC(=O)c1c(N)sc2c1CCCCC2`, the CC50 in series [1] is > 50 µM. Also, in the series on Leishmania donovani [2], the EC50 was > 50 µM.

`O=C(Nc1ccc(C(F)(F)F)cc1)c1c(NC(=O)C(F)(F)F)sc2c1CCCCC2`: the values for the EC50 with Leishmania donovani [3] and with Leishmania donovani [2] were > 50 µM and 17.6 µM, respectively. Further, the CC50 in series [1] was found to be 17.2 µM. Also, the selectivity ratio in series [4] is 0.9.

`C[C@@H]1[C@H](O)[C@@H](C)/C=C/C=C/C=C/C=C/C=C/C=C/C=C/[C@H](O[C@@H]2O[C@H](C)[C@@H](O)[C@H](N)[C@@H]2O)C[C@@H]2O[C@](O)(C[C@@H](O)C[C@@H](O)[C@H](O)CC[C@@H](O)C[C@@H](O)CC(=O)O[C@H]1C)C[C@H](O)[C@H]2C(=O)O` [AMPHOTERICIN B]: the values for the concentration giving a half-maximal response (EC50) in the series on Leishmania donovani [3] and in the series with Leishmania donovani [2] were 0.18 µM and 0.25 µM, respectively. Besides, in series [1], the half-maximal cytotoxic concentration (CC50) turned out to be 7.57 µM. The selectivity ratio in series [4] stood at 30.2.

Consider `O=C(Nc1ccc(OC(F)(F)F)cc1)c1c(NC(=O)C(F)(F)F)sc2c1CCCCC2`, for which the 50% effective concentration (EC50) in the series on Leishmania donovani [3] is > 50 µM; in the series with Leishmania donovani [2], 9.85 µM. This compound also showed a CC50 in series [1] of 11.9 µM. Besides, the selectivity ratio in series [4] worked out at 1.2.

In the case of `COC(=O)Nc1sc2c(c1C(=O)Nc1ccc(OC)cc1)CCCCC2`, in series [1], the cytotoxic concentration (CC50) was > 50 µM. In the series on Leishmania donovani [2], the EC50 is > 50 µM.

Regarding `Cc1ccc(NC(=O)c2c(NC(=O)C(F)(F)F)sc3c2CCCCC3)cc1`, the CC50 in series [1] was > 50 µM. Besides, in the series on Leishmania donovani [2], the 50% effective concentration (EC50) was > 50 µM.

On to `N#Cc1ccc(NC(=O)c2c(NC(=O)C(F)(F)F)sc3c2CCCCC3)cc1`, for which the results for the EC50 with Leishmania donovani [3] and in the series on Leishmania donovani [2] were > 50 µM and 8.53 µM, respectively. It took 9.11 µM to reach half-maximal cytotoxicity in series [1] (CC50). For the same compound, the selectivity ratio in series [4] was 1.06.

In the case of `COc1ccc(NC(=O)c2ccsc2NC(=O)C(F)(F)F)cc1`, the EC50 in the series on Leishmania donovani [3] and in the series on Leishmania donovani [2] was > 50 µM in each case. The CC50 in series [1] was > 50 µM.

As to `CC(=O)Nc1sc2c(c1C(=O)OC(C)(C)C)CCCCC2`, the CC50 in series [1] was > 50 µM. Further, the EC50 in the series on Leishmania donovani [2] is > 50 µM.

For the compound `COc1cccc(NC(=O)c2c(NC(=O)C(F)(F)F)sc3c2CCCCC3)c1`, the EC50 with Leishmania donovani [3] is 21.5 µM; in the series with Leishmania donovani [2], 10.1 µM. The compound also registered a CC50 in series [1] of 37.6 µM. The selectivity ratio in series [4] came to 3.71.

`COc1ccc(CNC(=O)c2c(NC(=O)C(F)(F)F)sc3c2CCCCC3)cc1`: the EC50 with Leishmania donovani [3] and in the series on Leishmania donovani [2] was > 50 µM in each case. Moreover, the CC50 in series [1] is > 50 µM.

For `COc1ccc(NC(=O)c2c(NC(=O)C(F)(F)F)sc(C)c2C)cc1`, the EC50 in the series with Leishmania donovani [3] was > 50 µM; in the series on Leishmania donovani [2], 10.1 µM. Also, the CC50 in series [1] was > 50 µM. The selectivity ratio in series [4] was > 4.95.

As for `COc1ccc(NC(=O)c2c(NC(C)=O)sc3c2CCCCC3)cc1`, the half-maximal effective concentration (EC50) with Leishmania donovani [3] and with Leishmania donovani [2] was > 50 µM throughout. Moreover, the CC50 in series [1] is > 50 µM.
